According to PubChem BioAssay (NCI):
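Cultured in 96-well plates, cells were exposed to test compound for 48 hours across five concentrations. GI50: concentration for 50% inhibition of growth. The concentration for full growth arrest is given as TGI.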

Assays:
Assay in all cases: DTP human tumour cell line panel, 48 h
[1] = tested on: 786-0 renal
[2] = tested on: A498 renal
[3] = tested on: A549 NSCLC
[4] = tested on: ACHN renal
[5] = tested on: BT-549 breast
[6] = tested on: CAKI-1 renal
[7] = tested on: CCRF-CEM leukemia
[8] = tested on: COLO 205 colon
[9] = tested on: DU-145 prostate
[10] = tested on: EKVX NSCLC
[11] = tested on: HCC-2998 colon
[12] = tested on: HCT-116 colon
[13] = tested on: HCT-15 colon
[14] = tested on: HL-60(TB) leukemia
[15] = tested on: HOP-62 NSCLC
[16] = tested on: HOP-92 NSCLC
[17] = tested on: HS 578T breast
[18] = tested on: HT29 colon
[19] = tested on: IGROV1 ovarian
[20] = tested on: K-562 leukemia
[21] = tested on: KM12 colon
[22] = tested on: LOX IMVI melanoma
[23] = tested on: M14 melanoma
[24] = tested on: MALME-3M melanoma
[25] = tested on: MCF7 breast
[26] = tested on: MDA-MB-231 breast
[27] = tested on: MDA-MB-435
[28] = tested on: MOLT-4 leukemia
[29] = tested on: NCI-H226 lung
[30] = tested on: NCI-H460 lung
[31] = tested on: NCI-H522 lung
[32] = tested on: NCI/ADR-RES ovarian
[33] = tested on: OVCAR-3 ovarian
[34] = tested on: OVCAR-4 ovarian
[35] = tested on: OVCAR-5 ovarian
[36] = tested on: OVCAR-8 ovarian
[37] = tested on: PC-3 prostate
[38] = tested on: RPMI-8226 leukemia
[39] = tested on: RXF 393 renal
[40] = tested on: SF-268 CNS
[41] = tested on: SF-295 CNS
[42] = tested on: SF-539 CNS
[43] = tested on: SK-MEL-2 melanoma
[44] = tested on: SK-MEL-28 melanoma
[45] = tested on: SK-MEL-5 melanoma
[46] = tested on: SK-OV-3 ovarian
[47] = tested on: SN12C renal
[48] = tested on: SNB-19 CNS
[49] = tested on: SNB-75 CNS
[50] = tested on: SR leukemia
[51] = tested on: SW-620 colon
[52] = tested on: T-47D breast
[53] = tested on: TK-10 renal
[54] = tested on: U251 CNS
[55] = tested on: UACC-257 melanoma
[56] = tested on: UACC-62 melanoma
[57] = tested on: UO-31 renal

Cc1cccc2sc(/N=C(\N)C(Br)Br)nc12
GI50 [1]: 1810 nM | TGI [1]: 4140 nM | GI50 [2]: 12500 nM | TGI [2]: 25100 nM | GI50 [3]: 2730 nM | TGI [3]: 10400 nM | GI50 [4]: 1070 nM | TGI [4]: 3860 nM | GI50 [5]: 1660 nM | TGI [5]: 3550 nM | GI50 [6]: 820 nM | TGI [6]: 2100 nM | GI50 [7]: 2670 nM | TGI [7]: 8120 nM | GI50 [8]: 1250 nM | TGI [8]: 2930 nM | GI50 [9]: 1940 nM | TGI [9]: 11100 nM | GI50 [10]: 3610 nM | TGI [10]: 14200 nM | GI50 [11]: 1590 nM | TGI [11]: 3450 nM | GI50 [12]: 520 nM | TGI [12]: 1990 nM | GI50 [13]: 1250 nM | TGI [13]: 6810 nM | GI50 [14]: 1830 nM | TGI [14]: 7130 nM | GI50 [15]: 2700 nM | TGI [15]: 12100 nM | GI50 [16]: 1540 nM | TGI [16]: 6390 nM | GI50 [17]: 2320 nM | TGI [17]: 9790 nM | GI50 [18]: 1180 nM | TGI [18]: 3530 nM | GI50 [19]: 1620 nM | TGI [19]: 3750 nM | GI50 [20]: 1070 nM | TGI [20]: 12800 nM | GI50 [21]: 1990 nM | TGI [21]: 11800 nM | GI50 [22]: 158 nM | TGI [22]: 345 nM | GI50 [23]: 1390 nM | TGI [23]: 3710 nM | GI50 [24]: 1640 nM | TGI [24]: 3660 nM | GI50 [25]: 819 nM | TGI [25]: 3800 nM | GI50 [26]: 2110 nM | TGI [26]: 7820 nM | GI50 [27]: 1330 nM | TGI [27]: 2920 nM | GI50 [28]: 1720 nM | TGI [28]: 11500 nM | GI50 [29]: 1820 nM | TGI [29]: 4130 nM | GI50 [30]: 654 nM | TGI [30]: 2590 nM | GI50 [31]: 1540 nM | TGI [31]: 3080 nM | GI50 [32]: 1670 nM | TGI [32]: 7100 nM | GI50 [33]: 1680 nM | TGI [33]: 4380 nM | GI50 [34]: 2000 nM | TGI [34]: 6500 nM | GI50 [35]: 2520 nM | TGI [35]: 7500 nM | GI50 [36]: 2110 nM | TGI [36]: 7270 nM | GI50 [37]: 1930 nM | TGI [37]: 6800 nM | GI50 [38]: 2120 nM | TGI [38]: 9510 nM | GI50 [39]: 1320 nM | TGI [39]: 3320 nM | GI50 [40]: 2240 nM | TGI [40]: 13100 nM | GI50 [41]: 3650 nM | TGI [41]: 15500 nM | GI50 [42]: 1420 nM | TGI [42]: 3340 nM | GI50 [43]: 2450 nM | TGI [43]: 7500 nM | GI50 [44]: 1910 nM | TGI [44]: 5260 nM | GI50 [45]: 3030 nM | TGI [45]: 9420 nM | GI50 [46]: 4000 nM | TGI [46]: 16000 nM | GI50 [47]: 1680 nM | TGI [47]: 3920 nM | GI50 [48]: 3230 nM | TGI [48]: 15100 nM | GI50 [49]: 2010 nM | TGI [49]: 10600 nM | GI50 [50]: 2010 nM | TGI [50]: 7450 nM | GI50 [51]: 659 nM | TGI [51]: 2410 nM | GI50 [52]: 2540 nM | TGI [52]: 12800 nM | GI50 [53]: 4300 nM | TGI [53]: 15500 nM | GI50 [54]: 1310 nM | TGI [54]: 3300 nM | GI50 [55]: 2900 nM | TGI [55]: 11500 nM | GI50 [56]: 2540 nM | TGI [56]: 12000 nM | GI50 [57]: 1230 nM | TGI [57]: 7530 nM
